Laboratory results published in US20260151389A1, “Use of Tetramethylpyrazine Nitrone Derivatives In The Treatment of Ischemic Stroke” (GUANGZHOU MAGPIE PHARMACEUTICALS CO., L.T.D., priority 2021, published 2026).

System: patients with acute ischemic stroke
Assay: multicenter, randomized, double-blind, parallel clinical trial in acute ischemic stroke
Type: in vivo, human
Details: for increase in percentage of patients with mRS 0-1 compared to the saline group: non-thrombolytic group, TBN 1400 mg iv twice a day for 7 days
Source text: The present invention adopts a multicenter, randomized, double-blind, parallel trial clinical research design. The patients with acute ischemic stroke included in the clinical trial-center as subjects (all signed informed consent forms) were divided into non-thrombolytic group and thrombolytic group. The non-thrombolytic group consists of the saline group and the TBN group. The thrombolytic group consists of the t-PA group and the combination group of TBN+t-PA.
Subjects of the tests: Patients diagnosed with acute ischemic stroke were selected by clinical trial centers based on the diagnostic criteria of “Chinese Guidelines for the Diagnosis and Treatment of Acute Ischemic Stroke (2018)”.
Administration method: TBN (1400 mg) is dissolved in a sodium chloride injection bag (specification: 100 mL) and administered intravenously for 30 minutes. Dose of t-PA: 0.9 mg/Kg/dose; usage: added to physiological saline, 10% of the dose is administered via injected intravenous injection immediately within 1-2 minutes, and the remaining 90% is administered via intravenous drop infusion within 60 minutes. t-PA is administered only once on the first day of acute ischemic stroke. The medication schedule of TBN: D1-D7 administered twice a day, with an interval of 12 hours, for 7 consecutive days.

Cc1nc(C)c(/C=[N+](\[O-])C(C)(C)C)nc1C [TBN, cis-2-methyl-N-[(3,5,6-trimethylpyrazin-2-)methylene]2-propamine oxide]
safety and tolerability (clinical trial patients): good safety and tolerability
increase in percentage of patients with mRS 0-1 compared to the saline group (30th day): 6.6 percentage points
increase in percentage of patients with mRS 0-1 compared to the saline group (90th day): 3.3 percentage points
